Assay results from PubChem BioAssay (NCI).
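Protocol summary: plate cells (96-well), add compound at 5 concentrations, incubate 48 h, interpolate endpoints linearly. Abbreviation: GI50, concentration required for 50% inhibition of growth. TGI marks complete inhibition of growth.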

Legend:
Assay in all cases: growth of human tumour cells (NCI), 48 h
786-0 renal = test system: 786-0 renal
A498 renal = test system: A498 renal
A549 NSCLC = test system: A549 NSCLC
ACHN renal = test system: ACHN renal
BT-549 breast = test system: BT-549 breast
CAKI-1 renal = test system: CAKI-1 renal
CCRF-CEM leukemia = test system: CCRF-CEM leukemia
COLO 205 colon = test system: COLO 205 colon
DU-145 prostate = test system: DU-145 prostate
EKVX NSCLC = test system: EKVX NSCLC
HCC-2998 colon = test system: HCC-2998 colon
HCT-116 colon = test system: HCT-116 colon
HCT-15 colon = test system: HCT-15 colon
HL-60(TB) leukemia = test system: HL-60(TB) leukemia
HOP-62 NSCLC = test system: HOP-62 NSCLC
HOP-92 NSCLC = test system: HOP-92 NSCLC
HS 578T breast = test system: HS 578T breast
HT29 colon = test system: HT29 colon
IGROV1 ovarian = test system: IGROV1 ovarian
K-562 leukemia = test system: K-562 leukemia
KM12 colon = test system: KM12 colon
LOX IMVI melanoma = test system: LOX IMVI melanoma
M14 melanoma = test system: M14 melanoma
MALME-3M melanoma = test system: MALME-3M melanoma
MCF7 breast = test system: MCF7 breast
MDA-MB-231 breast = test system: MDA-MB-231 breast
MDA-MB-435 = test system: MDA-MB-435
MOLT-4 leukemia = test system: MOLT-4 leukemia
NCI-H226 lung = test system: NCI-H226 lung
NCI-H23 lung = test system: NCI-H23 lung
NCI-H460 lung = test system: NCI-H460 lung
NCI-H522 lung = test system: NCI-H522 lung
NCI/ADR-RES ovarian = test system: NCI/ADR-RES ovarian
OVCAR-3 ovarian = test system: OVCAR-3 ovarian
OVCAR-4 ovarian = test system: OVCAR-4 ovarian
OVCAR-5 ovarian = test system: OVCAR-5 ovarian
OVCAR-8 ovarian = test system: OVCAR-8 ovarian
PC-3 prostate = test system: PC-3 prostate
RPMI-8226 leukemia = test system: RPMI-8226 leukemia
RXF 393 renal = test system: RXF 393 renal
SF-268 CNS = test system: SF-268 CNS
SF-295 CNS = test system: SF-295 CNS
SF-539 CNS = test system: SF-539 CNS
SK-MEL-2 melanoma = test system: SK-MEL-2 melanoma
SK-MEL-28 melanoma = test system: SK-MEL-28 melanoma
SK-MEL-5 melanoma = test system: SK-MEL-5 melanoma
SK-OV-3 ovarian = test system: SK-OV-3 ovarian
SN12C renal = test system: SN12C renal
SNB-19 CNS = test system: SNB-19 CNS
SNB-75 CNS = test system: SNB-75 CNS
SR leukemia = test system: SR leukemia
SW-620 colon = test system: SW-620 colon
T-47D breast = test system: T-47D breast
TK-10 renal = test system: TK-10 renal
U251 CNS = test system: U251 CNS
UACC-257 melanoma = test system: UACC-257 melanoma
UACC-62 melanoma = test system: UACC-62 melanoma
UO-31 renal = test system: UO-31 renal

`C#CCn1cccc1CNc1ccc(OC)cc1` gave a GI50 (786-0 renal) of over 100 µM, a TGI (786-0 renal) of over 100 µM and a GI50 (A498 renal) of 8.54 µM. It also gave a TGI (A498 renal) of over 100 µM, a GI50 (A549 NSCLC) of over 100 µM and a TGI (A549 NSCLC) of over 100 µM. For the same molecule, the GI50 (ACHN renal) was 97.2 µM, the TGI (ACHN renal) was over 100 µM and the GI50 (BT-549 breast) was 57 µM. It also gave a TGI (BT-549 breast) of over 100 µM, a GI50 (CAKI-1 renal) of 50 µM and a TGI (CAKI-1 renal) of over 100 µM. It also gave a GI50 (CCRF-CEM leukemia) of 41 µM, a TGI (CCRF-CEM leukemia) of over 100 µM and a GI50 (COLO 205 colon) of over 100 µM. The TGI (COLO 205 colon) was over 100 µM, the GI50 (DU-145 prostate) was over 100 µM and the TGI (DU-145 prostate) was over 100 µM. The GI50 (EKVX NSCLC) was 25.5 µM, the TGI (EKVX NSCLC) was over 100 µM and the GI50 (HCC-2998 colon) was over 100 µM. It also gave a TGI (HCC-2998 colon) of over 100 µM, a GI50 (HCT-116 colon) of 75.7 µM and a TGI (HCT-116 colon) of over 100 µM. The GI50 (HCT-15 colon) was over 100 µM, the TGI (HCT-15 colon) was over 100 µM and the GI50 (HL-60(TB) leukemia) was 34.6 µM. For the same molecule, the TGI (HL-60(TB) leukemia) was over 100 µM, the GI50 (HOP-62 NSCLC) was over 100 µM and the TGI (HOP-62 NSCLC) was over 100 µM. It also gave a GI50 (HOP-92 NSCLC) of 2.94 µM, a TGI (HOP-92 NSCLC) of over 100 µM and a GI50 (HS 578T breast) of over 100 µM. The TGI (HS 578T breast) was over 100 µM, the GI50 (HT29 colon) was over 100 µM and the TGI (HT29 colon) was over 100 µM. For the same molecule, the GI50 (IGROV1 ovarian) was 53.7 µM, the TGI (IGROV1 ovarian) was over 100 µM and the GI50 (K-562 leukemia) was 44.6 µM. The TGI (K-562 leukemia) was over 100 µM, the GI50 (KM12 colon) was 51.7 µM and the TGI (KM12 colon) was over 100 µM. For the same molecule, the GI50 (LOX IMVI melanoma) was 56.9 µM, the TGI (LOX IMVI melanoma) was over 100 µM and the GI50 (M14 melanoma) was 82 µM. For the same molecule, the TGI (M14 melanoma) was over 100 µM, the GI50 (MALME-3M melanoma) was over 100 µM and the TGI (MALME-3M melanoma) was over 100 µM. It also gave a GI50 (MCF7 breast) of 79.6 µM, a TGI (MCF7 breast) of over 100 µM and a GI50 (MDA-MB-231 breast) of over 100 µM. For the same molecule, the TGI (MDA-MB-231 breast) was over 100 µM, the GI50 (MDA-MB-435) was 78.9 µM and the TGI (MDA-MB-435) was over 100 µM. The GI50 (MOLT-4 leukemia) was over 100 µM, the TGI (MOLT-4 leukemia) was over 100 µM and the GI50 (NCI-H226 lung) was over 100 µM. For the same molecule, the TGI (NCI-H226 lung) was over 100 µM, the GI50 (NCI-H23 lung) was 46.4 µM and the TGI (NCI-H23 lung) was over 100 µM. For the same molecule, the GI50 (NCI-H460 lung) was over 100 µM, the TGI (NCI-H460 lung) was over 100 µM and the GI50 (NCI-H522 lung) was 41.6 µM. The TGI (NCI-H522 lung) was over 100 µM, the GI50 (NCI/ADR-RES ovarian) was over 100 µM and the TGI (NCI/ADR-RES ovarian) was over 100 µM. The GI50 (OVCAR-3 ovarian) was 64.4 µM, the TGI (OVCAR-3 ovarian) was over 100 µM and the GI50 (OVCAR-4 ovarian) was 28.7 µM. For the same molecule, the TGI (OVCAR-4 ovarian) was over 100 µM, the GI50 (OVCAR-5 ovarian) was over 100 µM and the TGI (OVCAR-5 ovarian) was over 100 µM. For the same molecule, the GI50 (OVCAR-8 ovarian) was over 100 µM, the TGI (OVCAR-8 ovarian) was over 100 µM and the GI50 (PC-3 prostate) was 16 µM. For the same molecule, the TGI (PC-3 prostate) was over 100 µM, the GI50 (RPMI-8226 leukemia) was 25 µM and the TGI (RPMI-8226 leukemia) was over 100 µM. For the same molecule, the GI50 (RXF 393 renal) was over 100 µM, the TGI (RXF 393 renal) was over 100 µM and the GI50 (SF-268 CNS) was over 100 µM. The TGI (SF-268 CNS) was over 100 µM, the GI50 (SF-295 CNS) was over 100 µM and the TGI (SF-295 CNS) was over 100 µM. The GI50 (SF-539 CNS) was over 100 µM, the TGI (SF-539 CNS) was over 100 µM and the GI50 (SK-MEL-2 melanoma) was over 100 µM. The TGI (SK-MEL-2 melanoma) was over 100 µM, the GI50 (SK-MEL-28 melanoma) was over 100 µM and the TGI (SK-MEL-28 melanoma) was over 100 µM. The GI50 (SK-MEL-5 melanoma) was 67.8 µM, the TGI (SK-MEL-5 melanoma) was over 100 µM and the GI50 (SK-OV-3 ovarian) was over 100 µM. It also gave a TGI (SK-OV-3 ovarian) of over 100 µM, a GI50 (SN12C renal) of over 100 µM and a TGI (SN12C renal) of over 100 µM. For the same molecule, the GI50 (SNB-19 CNS) was over 100 µM, the TGI (SNB-19 CNS) was over 100 µM and the GI50 (SNB-75 CNS) was over 100 µM. It also gave a TGI (SNB-75 CNS) of over 100 µM, a GI50 (SR leukemia) of over 100 µM and a TGI (SR leukemia) of over 100 µM. For the same molecule, the GI50 (SW-620 colon) was over 100 µM, the TGI (SW-620 colon) was over 100 µM and the GI50 (T-47D breast) was 37.8 µM. The TGI (T-47D breast) was over 100 µM, the GI50 (TK-10 renal) was over 100 µM and the TGI (TK-10 renal) was over 100 µM. It also gave a GI50 (U251 CNS) of over 100 µM, a TGI (U251 CNS) of over 100 µM and a GI50 (UACC-257 melanoma) of 45.5 µM. For the same molecule, the TGI (UACC-257 melanoma) was over 100 µM, the GI50 (UACC-62 melanoma) was 74.1 µM and the TGI (UACC-62 melanoma) was over 100 µM. It also gave a GI50 (UO-31 renal) of 39.1 µM and a TGI (UO-31 renal) of over 100 µM.
